Experimental data as given in ChEMBL document CHEMBL4330083, “Synthesis and evaluation of isoprenylation-resveratrol dimer derivatives against Alzheimer's disease” (Eur J Med Chem, 2019).
Active and inactive are the calls of the source. The rule behind the calls is not given here.

Tests used:
[1] = molecular target: T1, Amine oxidase [flavin-containing] A (Homo sapiens, UniProt P21397); test: Inhibition of human MAO-A preincubated for 15 mins followed by p-tyramine substrate addition and measured after 20 mins by Amplex red reagent based fluorescence assay
T1 sequence (P21397 whole entry): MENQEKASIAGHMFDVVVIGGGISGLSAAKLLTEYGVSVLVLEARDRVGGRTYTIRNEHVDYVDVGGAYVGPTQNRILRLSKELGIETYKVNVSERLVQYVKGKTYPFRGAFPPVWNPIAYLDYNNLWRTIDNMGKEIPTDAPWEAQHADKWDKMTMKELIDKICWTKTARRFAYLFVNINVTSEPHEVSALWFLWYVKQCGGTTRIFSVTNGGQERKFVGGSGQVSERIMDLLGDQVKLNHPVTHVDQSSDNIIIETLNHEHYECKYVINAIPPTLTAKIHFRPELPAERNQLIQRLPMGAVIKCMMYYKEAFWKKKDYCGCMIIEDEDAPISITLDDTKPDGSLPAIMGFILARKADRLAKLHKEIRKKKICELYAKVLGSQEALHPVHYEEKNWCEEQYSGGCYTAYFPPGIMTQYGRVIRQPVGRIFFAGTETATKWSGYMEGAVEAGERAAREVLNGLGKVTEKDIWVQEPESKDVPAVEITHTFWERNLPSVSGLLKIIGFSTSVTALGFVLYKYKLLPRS

[2] = molecular target: T2, Amine oxidase [flavin-containing] B (Homo sapiens, UniProt P27338)
T2 sequence (P27338 whole entry): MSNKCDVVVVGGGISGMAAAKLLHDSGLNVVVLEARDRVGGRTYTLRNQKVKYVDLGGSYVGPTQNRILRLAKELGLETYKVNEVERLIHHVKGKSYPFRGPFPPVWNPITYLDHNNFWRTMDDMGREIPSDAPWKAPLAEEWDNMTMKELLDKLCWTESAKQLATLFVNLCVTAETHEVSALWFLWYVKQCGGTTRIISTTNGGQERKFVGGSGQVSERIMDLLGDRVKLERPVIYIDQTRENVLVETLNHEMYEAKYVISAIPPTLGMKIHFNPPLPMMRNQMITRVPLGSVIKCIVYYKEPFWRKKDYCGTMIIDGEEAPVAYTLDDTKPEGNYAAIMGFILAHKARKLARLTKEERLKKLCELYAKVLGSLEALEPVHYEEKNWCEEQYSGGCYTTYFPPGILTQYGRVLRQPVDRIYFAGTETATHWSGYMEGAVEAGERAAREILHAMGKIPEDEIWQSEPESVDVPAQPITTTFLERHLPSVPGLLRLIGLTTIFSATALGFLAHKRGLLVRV

Homo sapiens [3] = species: Homo sapiens; test: Selectivity ratio of IC50 for human MAO-A to IC50 for human MAO-B
[4] = Antioxidant activity assessed as inhibition of DPPH free radical after 30 mins by UV-Visible spectrophotometric analysis; assay type: functional
[5] = Antioxidant activity assessed as ABTS radical cation scavenging activity by measuring trolox equivalents after 150 mins; assay type: functional
[6] = Antioxidant activity assessed as ferric ion reduction by measuring trolox equivalents after 3 to 5 mins by FRAP assay; assay type: functional
PC-12 [7] = test: Neuroprotection against H2O2-induced cell death in rat PC12 cells at 6.25 to 25 uM preincubated for 4 hrs followed by H2O2 addition measured after 24 hrs by MTT assay; assay type: functional, cell-based
PC-12 [8] = test: Neuroprotection against rotenone-induced cell death in rat PC12 cells preincubated for 4 hrs followed by rotenone addition measured after 24 hrs by MTT assay; assay type: functional, cell-based
PC-12 [9] = test: Neuroprotection against oligomycin A-induced cell death in rat PC12 cells preincubated for 4 hrs followed by oligomycin A addition measured after 24 hrs by MTT assay; assay type: functional, cell-based
PC-12 [10] = test: Neurotoxicity in rat PC12 cells at 30 uM after 24 hrs by MTT assay; assay type: toxicity, cell-based; conditions: pc-12, 24 h
PC-12 [11] = test: (§1) Neuroprotection against H2O2-induced oxidative damage in rat PC12 cells assessed as reduction in ROS production preincubated for 4 hrs followed by H2O2 addition and measured after 24 hrs by DCFH-DA staining-based flow cytometric analysis; assay type: functional, cell-based
PC-12 [12] = test: Neuroprotection against H2O2-induced oxidative damage in rat PC12 cells assessed as early apoptotic cells at 5 uM after 24 hrs in presence of H2O2 by annexin V-FITC/propidium iodide staining based flow cytometric analysis (reference value: 29.3%); assay type: functional
PC-12 [13] = test: Neuroprotection against H2O2-induced oxidative damage in rat PC12 cells assessed as viable cells at 5 uM after 24 hrs in presence of H2O2 by annexin V-FITC/propidium iodide staining based flow cytometric analysis (reference value: 64.1%); assay type: functional; conditions: PC-12, 24 h, read-out: Activity
PC-12 [14] = test: Neuroprotection against H2O2-induced oxidative damage in rat PC12 cells assessed as intracellular Ca2+ level by measuring mean fluorescence intensity at 5 uM after 24 hrs in presence of H2O2 by Fluo-3/AM staining based flow cytometric analysis (reference value: 51697); assay type: functional
Homo sapiens [15] = species: Homo sapiens; test: Neuroprotection against LPS-induced inflammation in […] cells assessed as reduction in nitric oxide production at 10 to 25 uM after 18 hrs by Griess reagent based assay; assay type: functional, cell-based
Homo sapiens [16] = species: Homo sapiens; test: Neuroprotection against LPS-induced inflammation in […] cells assessed as reduction in ROS production after 18 hrs by DCFH-DA staining-based flow cytometric analysis; assay type: functional, cell-based
[17] = Neuroprotection against LPS-induced inflammation in […] cells assessed as reduction in ROS production by measuring mean fluorescence intensity at 5 uM after 18 hrs by DCFH-DA staining-based flow cytometric analysis (reference value: 56792); assay type: functional
Homo sapiens [18] = species: Homo sapiens; test: Antiinflammatory activity in […] cells assessed as inhibition of LPS-induced TNF-alpha release preincubated for 1 hr followed by LPS addition measured after 18 hrs by ELISA; assay type: functional, cell-based
in vitro = test: in vitro; design: dose or concentration left out as unconfirmed; conditions: PAMPA
Description: Effective permeability of the compound at 100 mg/ml incubated for 16 hrs by PAMPA-BBB assay

PC-12 [19] = test: as §1, with “production by measuring mean fluorescence intensity at 2.5 uM” for “production”, “addition” for “addition and”, “analysis (reference value: 82616)” for “analysis”; assay type: functional
PC-12 [20] = test: as §1, with “production by measuring mean fluorescence intensity at 5 uM” for “production”, “addition” for “addition and”, “analysis (reference value: 82616)” for “analysis”; assay type: functional
PC-12 [21] = test: as §1, with “production by measuring mean fluorescence intensity at 10 uM” for “production”, “addition” for “addition and”, “analysis (reference value: 82616)” for “analysis”; assay type: functional
PC-12 [22] = test: Neuroprotection against H2O2-induced oxidative damage in rat PC12 cells assessed as early apoptotic cells at 5 uM after 24 hrs in presence of H2O2 by annexin V-FITC/propidium iodide staining based flow cytometric analysis (reference value: 2.1%); assay type: functional
[23] = Neuroprotection against LPS-induced inflammation in […] cells assessed as reduction in ROS production by measuring mean fluorescence intensity at 5 uM after 18 hrs by DCFH-DA staining-based flow cytometric analysis (reference value: 70385); assay type: functional
[24] = Neuroprotection against LPS-induced inflammation in […] cells assessed as reduction in ROS production by measuring mean fluorescence intensity at 10 uM after 18 hrs by DCFH-DA staining-based flow cytometric analysis (reference value: 70385); assay type: functional

Compound | IC50 [1] [µM] | IC50 [2] [µM] | Ratio IC50 (Homo sapiens [3]) | IC50 [4] [µM] | Activity [5] [equiv] | Activity [6] [equiv] | Activity (PC-12 [7]) | Activity (PC-12 [8]) | Activity (PC-12 [9]) | Activity (PC-12 [10]) | Activity (PC-12 [11]) | Activity (Homo sapiens [15]) | Activity (Homo sapiens [16]) | inhibition (Homo sapiens [18]) | Papp at 16 h (in vitro) [×10⁻⁶ cm/s] | also measured
CC(C)=CCc1c(O)cc(/C=C/c2ccc3c(c2)[C@H](c2cc(O)c(CC=C(C)C)c(O)c2)[C@@H](c2ccc(O)cc2)O3)cc1O | 2.6 | 0.92 | 2.83 | 47 | 1.43 | 1.74 | Active | Dose-dependent effect | Dose-dependent effect | Non-Toxic | Dose-dependent effect | Active | Dose-dependent effect | Dose-dependent effect | 10.1 | Activity (PC-12 [12]): 13.1%; viability at 5 µM (PC-12 [13]): 82.2%; Flu intensity (PC-12 [14]): 38796; Flu intensity [17]: 28450
CC(C)=CCc1c(O)cc(/C=C/c2ccc3c(c2)[C@H](c2cc(O)c4c(c2)OC(C)(C)CC4)[C@@H](c2ccc(O)cc2)O3)cc1O | 8.12 | 3.93 | 2.07 | 35.3 | 1.7 | 1.97 | Active | Dose-dependent effect | Dose-dependent effect | Non-Toxic | Dose-dependent effect | Active | Dose-dependent effect | Dose-dependent effect | 6.92 | Flu intensity (PC-12 [19]): 61043; Flu intensity (PC-12 [20]): 58560; Flu intensity (PC-12 [21]): 56274; Activity (PC-12 [22]): 1.9%; Flu intensity [23]: 51980; Flu intensity [24]: 43811
